The target of test [1] is GDP-bound NRAS wild-type protein (Homo sapiens, UniProt P01111). Nature of the test: Binding to NRAS by surface plasmon resonance (SPR), Single Cycle Kinetics. The settings on record: SPR; KD ratio class. For orientation: Surface plasmon resonance follows binding to a sensor surface in real time, without labels.
The target of test [2] is GDP-bound HRAS wild-type protein (Homo sapiens, UniProt P01112). Kind of test: Binding to HRAS by surface plasmon resonance (SPR), Single Cycle Kinetics. Conditions: SPR; KD ratio class.
The subject of test [3] is human lung cancer strain NCI-H441. Kind of test: cells. Conditions: NCI-H441, 96 h, read-out: NCI-H441 IC50 (nM).

Chain of GDP-bound NRAS wild-type protein (P01111 whole entry): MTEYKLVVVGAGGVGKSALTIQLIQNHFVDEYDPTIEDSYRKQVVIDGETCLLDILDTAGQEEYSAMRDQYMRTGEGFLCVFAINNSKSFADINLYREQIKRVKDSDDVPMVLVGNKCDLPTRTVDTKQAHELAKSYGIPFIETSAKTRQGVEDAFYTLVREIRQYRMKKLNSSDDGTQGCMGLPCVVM
Chain of GDP-bound HRAS wild-type protein (P01112 whole entry): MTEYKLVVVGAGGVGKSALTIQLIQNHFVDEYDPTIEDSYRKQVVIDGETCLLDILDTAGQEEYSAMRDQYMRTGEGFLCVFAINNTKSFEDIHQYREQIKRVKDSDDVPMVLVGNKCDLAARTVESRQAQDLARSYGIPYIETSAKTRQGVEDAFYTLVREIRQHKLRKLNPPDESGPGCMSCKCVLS

As to `CCO[C@@H]1C[C@H]2C(=O)NC3(CCCC3)C(=O)N(C)[C@@H](C(CC)CC)C(=O)N(C)[C@H](C(=O)N3CCCC3)CC(=O)N(C)[C@@H](C)C(=O)N[C@@H]([C@@H](C)CC)C(=O)N(C)CC(=O)N(C)[C@H]3C/C=C\CCN(C3=O)[C@@H](CC3CCCCC3)C(=O)N(C)CC(=O)N[C@@H](CCc3cc(F)c(C(F)(F)F)c(F)c3)C(=O)N2C1` [PP1435], the “NRAS/KRAS (ratio of KD value for GDP-bound NRAS wild-type protein to KD value for KRAS)” value in test [1] is “A (a compound having 10 or more and less than 20 is denoted as A)”. In test [2], the “HRAS/KRAS (ratio of KD value for GDP-bound HRAS wild-type protein to KD value for KRAS)” value was “A (a compound having 10 or more and less than 20 is denoted as A)”. In addition, in test [3], the IC50 was determined as 178 nM.
Regarding `CCO[C@@H]1C[C@H]2C(=O)NC3(CC(C)(C)C3)C(=O)N(C)[C@@H](C3CCCC3)C(=O)N(C)[C@H](C(=O)N(C)CC)CC(=O)N(C)[C@@H](CC)C(=O)N[C@@H]([C@@H](C)CC)C(=O)N(C)CC(=O)N(C)[C@H]3C/C=C\CCN(C3=O)[C@@H](Cc3ccc(C(F)(F)F)cc3)C(=O)N(C)CC(=O)N[C@@H](CCc3cc(F)c(C(F)(F)F)c(F)c3)C(=O)N2C1` [PP1579], in test [1], the “NRAS/KRAS (ratio of KD value for GDP-bound NRAS wild-type protein to KD value for KRAS)” value is “A (a compound having 10 or more and less than 20 is denoted as A)”. In test [2], the “HRAS/KRAS (ratio of KD value for GDP-bound HRAS wild-type protein to KD value for KRAS)” value is “B (a compound having 3 or more and less than 10 is denoted as B)”. The IC50 in test [3] came out at 4.1 nM.
`CCO[C@@H]1C[C@H]2C(=O)NC3(CCC3)C(=O)N(C)[C@@H](C3CCCC3)C(=O)N(C)[C@H](C(=O)N(C)C)CC(=O)N(C)[C@@H](CC(C)C)C(=O)N[C@@H]([C@@H](C)CC)C(=O)N(C)CC(=O)N(C)[C@H]3C/C=C\CCN(C3=O)[C@@H](Cc3ccc(F)cc3C)C(=O)N(C)CC(=O)N[C@@H](CCc3ccc(Cl)c(Cl)c3)C(=O)N2C1` [PP1480]: the “NRAS/KRAS (ratio of KD value for GDP-bound NRAS wild-type protein to KD value for KRAS)” value in test [1] is “A (a compound having 10 or more and less than 20 is denoted as A)”. For the same molecule, the “HRAS/KRAS (ratio of KD value for GDP-bound HRAS wild-type protein to KD value for KRAS)” value in test [2] was “B (a compound having 3 or more and less than 10 is denoted as B)”. Further, in test [3], the IC50 worked out at 85.8 nM.
Consider `CCO[C@@H]1C[C@H]2C(=O)NC3(CCC3)C(=O)N(C)[C@@H](C3CCCC3)C(=O)N(C)[C@H](C(=O)N(C)C)CC(=O)N(C)[C@@H](CC)C(=O)N[C@@H]([C@@H](C)CC)C(=O)N(C)CC(=O)N(C)[C@H]3C/C=C\CCN(C3=O)[C@@H](Cc3ccc(C(F)(F)F)cc3)C(=O)N(C)CC(=O)N[C@@H](CCc3ccc4sccc4c3)C(=O)N2C1` [PP1255], for which the “NRAS/KRAS (ratio of KD value for GDP-bound NRAS wild-type protein to KD value for KRAS)” value in test [1] is “A (a compound having 10 or more and less than 20 is denoted as A)”. In test [2], the “HRAS/KRAS (ratio of KD value for GDP-bound HRAS wild-type protein to KD value for KRAS)” value is “A (a compound having 10 or more and less than 20 is denoted as A)”. For the same molecule, in test [3], the IC50 was 156 nM.
Take `CC[C@H](C)[C@@H]1NC(=O)[C@H](CC)N(C)C(=O)C[C@@H](C(=O)N(C)C)N(C)C(=O)[C@H](C2CCCC2)N(C)C(=O)C2(CCCC2)NC(=O)[C@@H]2CCCN2C(=O)[C@H](CCc2ccc(C(F)(F)F)c(Cl)c2)NC(=O)CN(C)C(=O)[C@H](Cc2ccc(C(F)(F)F)cc2)N2C[C@H](C)CC[C@@H](C2=O)N(C)C(=O)CN(C)C1=O` [PP1336]: the “NRAS/KRAS (ratio of KD value for GDP-bound NRAS wild-type protein to KD value for KRAS)” value in test [1] was “B (a compound having 3 or more and less than 10 is denoted as B)”. Moreover, in test [2], the “HRAS/KRAS (ratio of KD value for GDP-bound HRAS wild-type protein to KD value for KRAS)” value was “B (a compound having 3 or more and less than 10 is denoted as B)”. Moreover, in test [3], the IC50 was 10.8 nM.
For `CCO[C@@H]1C[C@H]2C(=O)NC3(CCC3)C(=O)N(C)[C@@H](C(CC)CC)C(=O)N(C)[C@H](C(=O)N(C)C)CC(=O)N(C)[C@@H](CC3CCCC3)C(=O)N[C@@H]([C@@H](C)CC)C(=O)N(C)CC(=O)N(C)[C@H]3C/C=C\CCN(C3=O)[C@@H](Cc3ccc(F)cc3C)C(=O)N(C)CC(=O)N[C@@H](CCc3cc(F)c(C(F)(F)F)c(F)c3)C(=O)N2C1` [PP1516], the “NRAS/KRAS (ratio of KD value for GDP-bound NRAS wild-type protein to KD value for KRAS)” value in test [1] was “A (a compound having 10 or more and less than 20 is denoted as A)”. Besides, the “HRAS/KRAS (ratio of KD value for GDP-bound HRAS wild-type protein to KD value for KRAS)” value in test [2] is “B (a compound having 3 or more and less than 10 is denoted as B)”. In addition, in test [3], the IC50 turned out to be 45.7 nM.
In the case of `CCC[C@H]1C(=O)N[C@@H]([C@@H](C)CC)C(=O)N(C)CC(=O)N(C)[C@H]2C/C=C\CCN(C2=O)[C@@H](Cc2ccc(C(F)(F)F)cc2)C(=O)N(C)CC(=O)N[C@@H](CCc2cc(F)c(Cl)c(F)c2)C(=O)N2C[C@H](OCC)C[C@H]2C(=O)NC2(CCC2)C(=O)N(C)[C@@H](C(CC)CC)C(=O)N(C)[C@H](C(=O)N(C)C)CC(=O)N1C` [PP1231], the “NRAS/KRAS (ratio of KD value for GDP-bound NRAS wild-type protein to KD value for KRAS)” value in test [1] is on record as “AA (a compound having 20 or more is denoted as AA)”. Moreover, the “HRAS/KRAS (ratio of KD value for GDP-bound HRAS wild-type protein to KD value for KRAS)” value in test [2] was “A (a compound having 10 or more and less than 20 is denoted as A)”. Moreover, the IC50 in test [3] came to 23.1 nM.
With `CCC[C@H]1C(=O)N[C@@H]([C@@H](C)CC)C(=O)N(C)CC(=O)N(C)[C@H]2C/C=C\CCN(C2=O)[C@@H](Cc2ccc(C(F)(F)F)cc2)C(=O)N(C)CC(=O)N[C@@H](CCc2ccc(C(F)(F)F)c(OC)c2)C(=O)N2C[C@H](OCC)C[C@H]2C(=O)NC2(CC(C)(C)C2)C(=O)N(C)[C@@H](C2CCCC2)C(=O)N(C)[C@H](C(=O)N(C)C)CC(=O)N1C` [PP1560], in test [1], the “NRAS/KRAS (ratio of KD value for GDP-bound NRAS wild-type protein to KD value for KRAS)” value is “A (a compound having 10 or more and less than 20 is denoted as A)”. In addition, the “HRAS/KRAS (ratio of KD value for GDP-bound HRAS wild-type protein to KD value for KRAS)” value in test [2] was “B (a compound having 3 or more and less than 10 is denoted as B)”. Besides, the IC50 in test [3] worked out at 1.8 nM.
Take `CCO[C@@H]1C[C@H]2C(=O)NC3(CCC3)C(=O)N(C)[C@@H](C3CCCC3)C(=O)N(C)[C@H](C(=O)N3CCOCC3)CC(=O)N(C)[C@@H](CC)C(=O)N[C@@H]([C@@H](C)CC)C(=O)N3CC[C@H]3C(=O)N(C)[C@H]3CC[C@@H](C)CN(C3=O)[C@@H](Cc3ccc(C(F)(F)F)cc3)C(=O)N(C)CC(=O)N[C@@H](CCc3cc(F)c(C(F)(F)F)c(F)c3)C(=O)N2C1` [PP1369]: in test [1], the “NRAS/KRAS (ratio of KD value for GDP-bound NRAS wild-type protein to KD value for KRAS)” value was “B (a compound having 3 or more and less than 10 is denoted as B)”. Also, the “HRAS/KRAS (ratio of KD value for GDP-bound HRAS wild-type protein to KD value for KRAS)” value in test [2] was “B (a compound having 3 or more and less than 10 is denoted as B)”. Moreover, the IC50 in test [3] stood at 13.4 nM.
Consider `CCO[C@@H]1C[C@H]2C(=O)NC3(CCC3)C(=O)N(C)[C@@H](C(CC)CC)C(=O)N(C)[C@H](C)CC(=O)N(C)[C@@H](CC(C)C)C(=O)N[C@@H]([C@@H](C)CC)C(=O)N(C)CC(=O)N(C)[C@H]3C/C=C\CCN(C3=O)[C@@H](Cc3ccc(F)cc3)C(=O)N(C)CC(=O)N[C@@H](CCc3cc(F)c(C(F)(F)F)c(F)c3)C(=O)N2C1` [PP1525], for which the “NRAS/KRAS (ratio of KD value for GDP-bound NRAS wild-type protein to KD value for KRAS)” value in test [1] was “A (a compound having 10 or more and less than 20 is denoted as A)”. Moreover, the “HRAS/KRAS (ratio of KD value for GDP-bound HRAS wild-type protein to KD value for KRAS)” value in test [2] is “A (a compound having 10 or more and less than 20 is denoted as A)”. Also, the IC50 in test [3] worked out at 132 nM.
With `CCO[C@@H]1C[C@H]2C(=O)NC3(CC(C)(C)C3)C(=O)N(C)[C@@H](C3CCCC3)C(=O)N(C)[C@H](C(=O)N(C)C)CC(=O)N(C)[C@@H](CC(C)C)C(=O)N[C@@H]([C@@H](C)CC)C(=O)N(C)CC(=O)N(C)[C@H]3C/C=C\CCN(C3=O)[C@@H](Cc3ccc(C(F)(F)F)cc3)C(=O)N(C)CC(=O)N[C@@H](CCc3ccc(C(F)(F)F)c(OC)c3)C(=O)N2C1` [PP1562], in test [1], the “NRAS/KRAS (ratio of KD value for GDP-bound NRAS wild-type protein to KD value for KRAS)” value is “A (a compound having 10 or more and less than 20 is denoted as A)”. The “HRAS/KRAS (ratio of KD value for GDP-bound HRAS wild-type protein to KD value for KRAS)” value in test [2] was “A (a compound having 10 or more and less than 20 is denoted as A)”. The IC50 in test [3] worked out at 1.7 nM.
For the molecule `CCO[C@@H]1C[C@H]2C(=O)NC3(CCC3)C(=O)N(C)[C@@H](C(CC)CC)C(=O)N(C)[C@H](C(=O)N3CCCC3)CC(=O)N(C)[C@@H](COC)C(=O)N[C@@H]([C@@H](C)CC)C(=O)N(C)CC(=O)N(C)[C@H]3C/C=C\CCN(C3=O)[C@@H](CC3CCC(F)(F)CC3)C(=O)N(C)CC(=O)N[C@@H](CCc3cc(F)c(C(F)(F)F)c(F)c3)C(=O)N2C1` [PP1440], the “NRAS/KRAS (ratio of KD value for GDP-bound NRAS wild-type protein to KD value for KRAS)” value in test [1] is recorded as “AA (a compound having 20 or more is denoted as AA)”. Further, the “HRAS/KRAS (ratio of KD value for GDP-bound HRAS wild-type protein to KD value for KRAS)” value in test [2] is “A (a compound having 10 or more and less than 20 is denoted as A)”. The IC50 in test [3] was 69.7 nM.
`CCO[C@@H]1C[C@H]2C(=O)NC3(CCCC3)C(=O)N(C)[C@@H](C3CCCC3)C(=O)N(C)[C@H](C(=O)N3CCOCC3)CC(=O)N(C)[C@@H](CC)C(=O)N[C@@H]([C@@H](C)CC)C(=O)N(C)CC(=O)N(C)[C@H]3CC[C@@H](C)CN(C3=O)[C@@H](Cc3ccc(C(F)(F)F)cc3)C(=O)N(C)CC(=O)N[C@@H](CCc3ccc(C(F)(F)F)c(Cl)c3)C(=O)N2C1` [PP1377]: the “NRAS/KRAS (ratio of KD value for GDP-bound NRAS wild-type protein to KD value for KRAS)” value in test [1] is “B (a compound having 3 or more and less than 10 is denoted as B)”. Also, in test [2], the “HRAS/KRAS (ratio of KD value for GDP-bound HRAS wild-type protein to KD value for KRAS)” value was “B (a compound having 3 or more and less than 10 is denoted as B)”. The IC50 in test [3] worked out at 5.8 nM.
With `CC[C@H](C)[C@@H]1NC(=O)[C@H](CC)N(C)C(=O)C[C@@H](C(=O)N2CCOCC2)N(C)C(=O)[C@H](C2CCCC2)N(C)C(=O)C2(CCCC2)NC(=O)[C@@H]2CCCN2C(=O)[C@H](CCc2cc(F)c(C(F)(F)F)c(F)c2)NC(=O)CN(C)C(=O)[C@H](Cc2ccc(C(F)(F)F)cc2)N2C[C@H](C)[C@H](C)C[C@@H](C2=O)N(C)C(=O)CN(C)C1=O` [PP1365], in test [1], the “NRAS/KRAS (ratio of KD value for GDP-bound NRAS wild-type protein to KD value for KRAS)” value was “A (a compound having 10 or more and less than 20 is denoted as A)”. In test [2], the “HRAS/KRAS (ratio of KD value for GDP-bound HRAS wild-type protein to KD value for KRAS)” value was “B (a compound having 3 or more and less than 10 is denoted as B)”. Moreover, the IC50 in test [3] stood at 4.2 nM.

A word on the IC50: it is the concentration that gives 50% inhibition.

For the origin of these results see patent publication US20250230193A1, “CYCLIC COMPOUND HAVING SELECTIVE KRAS INHIBITORY EFFECT ON HRAS AND NRAS” (CHUGAI SEIYAKU KABUSHIKI KAISHA, priority 2022, published 2025).
